Measured values from US20110301079A1, “NEUROMEDIN U RECEPTOR AGONISTS AND USES THEREOF” (Instituto di Ricerche di Biologia Molecolare P. Angeletti …, priority 2007, published 2011).
Residues, ends and D or L forms follow the SMILES beside them. Groups on a side chain read outwards from the residue. No end group written: not given here. *: point of attachment. Succinimide(1-Et,3-yl) = CCN1C(=O)CC(*)C1=O

Assays:
mouse NMUR1-ATG = molecular target: T1, mouse NMUR1-ATG (Mus musculus, UniProt O55040); test: FLIPR calcium mobilization assay, mouse NMUR1-ATG cell line; type: cell-based; conditions: for EC50: FLIPR
T1 construct: expressed in transfected cells; host or cells: FLP-In CHO cells and HEK-293 FLP-In cells (pcDNA5)
T1 sequence (O55040 1-428): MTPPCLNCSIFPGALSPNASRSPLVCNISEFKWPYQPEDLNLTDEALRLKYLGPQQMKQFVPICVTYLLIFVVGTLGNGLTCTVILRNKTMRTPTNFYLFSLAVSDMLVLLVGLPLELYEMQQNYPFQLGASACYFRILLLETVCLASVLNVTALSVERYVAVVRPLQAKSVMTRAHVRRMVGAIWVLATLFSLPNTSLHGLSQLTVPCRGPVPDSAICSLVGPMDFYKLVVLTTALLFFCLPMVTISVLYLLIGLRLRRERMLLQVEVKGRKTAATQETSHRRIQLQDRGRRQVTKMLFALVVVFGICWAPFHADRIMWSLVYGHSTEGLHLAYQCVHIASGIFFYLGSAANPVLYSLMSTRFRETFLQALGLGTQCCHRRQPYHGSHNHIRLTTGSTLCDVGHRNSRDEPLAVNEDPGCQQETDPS
Source text: (§1) Human, mouse or rat cDNAs encoding NMUR1 or NMUR2 (as described in Howard et al. Nature 406: 70-74 (2000) were subcloned in pcDNA5 (Invitrogen) and transfected into FLP-In CHO cells and HEK-293 FLP-In cells purchased from Invitrogen (Carlsbad, Calif.) using lipofectamine (Invitrogen). The Flp-In system allows integration and expression of a particular gene of interest at a specific genomic location utilizing the Flp recombinase from yeast. The transfected cells were selected by growth in medium containing 200 μg/mL hygromycin (Invitrogen). Populations were frozen at early passage numbers, and these stocks were used for further studies. Stable clones that expressed the mRNAs were identified functionally by FLIPR as well as by RT-PCR. […] Two different rodent NMUR1 cell lines were thus generated: one with the codon as predicted from the genomic databases and another cell line with an engineered methionine (ATG) as the start codon. The dog NMU receptors were also cloned from intestine RNA (NMUR1) and brain (NMUR2) and stable cell lines were generated as used for the human and rodent cell lines. […] To ensure high levels of expression in a heterologous system, a dog NMUR1 cell line was generated that contains an ATG as the start codon. Additionally, stable cell lines expressing the human receptors were generated in HEK-293/aeq 17 cells which stably express the aequorin gene under the CMV promoter. The human NMUR2 cDNA was cloned into pcDNA3.1 and human NMUR1 was subcloned into pIRES-puro (Clontech, Mountain View, Calif.), after transfection cells were selected in media containing G418 and either hygromycin (NMUR2) or puromycin (NMUR1).
(§2) The NMU receptors signal primarily through Gαq/11 proteins; therefore calcium mobilization assays can be utilized for functional activity.
(§3) Stable cell lines expressing human and or rodent NMUR1 or human NMUR2 receptors are plated at a density of 12,000 cells per well overnight on poly-lysine coated 384-well black-walled plates. The following day, the media is removed from the plates and the cells were subsequently loaded with Fluo-3 (Molecular Probes), a calcium sensitive dye, diluted in FLIPR buffer (1× Hank's buffered saline containing 20 mM HEPES, 0.1% BSA, 2.5 mM probenecid (Sigma) and 1.6 mM TR40). All reagents are from Invitrogen unless otherwise noted. Peptide stocks are resuspended in DMSO at a stock concentration of 2 mM and diluted in FLIPR buffer on the day of the experiment to a 4 μM working stock solution.
(§4) After a 90 minute incubation at room-temperature, cell plates are loaded onto a FLIPR (Molecular Devices) to monitor cellular fluorescence (excitation=488 nm; emission=540 nm) before and after compound/peptide addition. Eight to twelve point dose responses are tested on NMUR-expressing cell lines using FLIPR with 1 μM peptide as the highest dose. The response after peptide addition is taken as the maximum fluorescence units minus the fluorescence immediately prior to stimulation for each well. EC50 values are calculated using GraphPad Prism (San Diego, Calif.) software.
(§5) Percent activity refers to the maximum response at 1 μM compared to the human NMU-25 response at the same concentration.

dog NMUR1-ATG = test: FLIPR calcium mobilization assay, dog NMUR1-ATG cell line; type: cell-based; conditions: for EC50: FLIPR
Source text: as §1, §2, §3, §4, §5

dog NMUR2 = molecular target: T2, dog NMUR2 (Canis lupus familiaris, UniProt A0A8I3MN59); test: FLIPR calcium mobilization assay, dog NMUR2 cell line; type: cell-based; conditions: for EC50: dog NMUR2, FLIPR
T2 construct: expressed in transfected cells
Source text: as §1, §2, §3, §4, §5

human NMUR2 = molecular target: T3, human NMUR2 (Homo sapiens, UniProt Q9GZQ4); test: FLIPR calcium mobilization assay, human NMUR2-expressing cell line; type: cell-based; conditions: for EC50: human NMUR2, FLIPR
T3 construct: expressed in transfected cells; host or cells: FLP-In CHO cells and HEK-293 FLP-In cells (pcDNA5)
Source text: as §1, §2, §3, §4, §5

mouse NMUR2 = molecular target: T4, mouse NMUR2 (Mus musculus, UniProt Q8BZ39); test: FLIPR calcium mobilization assay, mouse NMUR2 cell line; type: cell-based; conditions: for EC50: mouse NMUR2, FLIPR
T4 construct: expressed in transfected cells; host or cells: FLP-In CHO cells and HEK-293 FLP-In cells (pcDNA5)
Source text: as §1, §2, §3, §4, §5

human NMUR1 = molecular target: T5, human NMUR1 (Homo sapiens, UniProt Q9HB89); test: FLIPR calcium mobilization assay, human NMUR1-expressing cell line; type: cell-based; conditions: for EC50: human NMUR1, FLIPR
T5 construct: expressed in transfected cells; host or cells: FLP-In CHO cells and HEK-293 FLP-In cells (pcDNA5)
T5 sequence (Q9HB89 1-426): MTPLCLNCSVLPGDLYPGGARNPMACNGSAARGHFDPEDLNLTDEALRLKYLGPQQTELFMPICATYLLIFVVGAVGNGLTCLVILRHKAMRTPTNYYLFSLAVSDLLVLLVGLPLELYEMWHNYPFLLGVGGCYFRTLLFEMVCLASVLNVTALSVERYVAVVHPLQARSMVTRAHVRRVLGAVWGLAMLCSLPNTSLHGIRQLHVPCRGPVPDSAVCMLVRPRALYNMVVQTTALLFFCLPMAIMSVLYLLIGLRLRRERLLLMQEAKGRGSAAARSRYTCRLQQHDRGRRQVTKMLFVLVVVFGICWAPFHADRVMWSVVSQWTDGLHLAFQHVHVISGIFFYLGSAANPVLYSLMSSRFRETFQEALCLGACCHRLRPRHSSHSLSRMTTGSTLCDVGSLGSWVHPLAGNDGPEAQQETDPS
Source text: as §1, §2, §3, §4, §5

mice = test: Acute subcutaneous administration of NMS analogs, daily food intake and body weight; type: in vivo; conditions: for overnight food intake: FIG. 6A; for duration of significant reduction of food intake: daily food intake over a four-day period
Experimental: (§6) Ad libitum fed male diet-induced obese mice obtained from Taconic Farms were weighed and dosed either i.p. or s.c. with NMS or NMU at about 30 minutes prior to the onset of the dark phase of the light cycle and provided with a pre-weighed aliquot of high fat diet (D12492: 60% kcal from fat: Research Diets, Inc.), which was then weighed two and 18 hours after the onset of the initial dark phase. Mice were weighed at the 18 hour (overnight) time point.
The efficacy of various PEGylated NMS analogs were evaluated using the aforementioned assays. The PEGylated NMS analogs evaluated were NMS1 and NMS4 (See Table 1).
NMS1, NMS3, and NMS4 were administered subcutaneously and daily food intake was measured over a four-day period.

[1] = tested on: wild-type, Nmur1 knockout, Nmur2 knockout and Nmur1/Nmur2 double knockout mice; test: Acute feeding study in wild-type and Nmur knockout mice; type: in vivo
Experimental: as §6
NMUR1 knockout (Nmur1−/−) mice were generated using standard homologous recombination techniques. Nmur1 mice were subsequently transferred to Taconic Farms where they were either maintained on a 75% C57BL/6×25% 129S6/SvEv mixed genetic background or backcrossed 6 generations to C57BL/6. NMUR2 knockout (Nmur2−/−) mice were licensed from Deltagen Inc., San Mateo, Calif. and subsequently transferred to Taconic Farms were they were either maintained on a 75% C57BL/6×25% 129/OlaHsd mixed genetic background or backcrossed for 7 generations to C57BL/6. NMUR1 and NMUR2 double knockout (Nmur1&2−/−) mice were generated by crossing N6 Nmur1−/− mice to N7 Nmur2−/− mice. Mice were individually housed in Tecniplast cages in a conventional SPF facility. Mice were initially maintained on a regular chow diet and then early in their life were switched to a high fat diet (D12492) with ad libitum access to water in a 12-h light/12-h dark cycle.
The anorectic effects of NMS1 were mediated by both the NMUR1 and NMUR2 receptors. […] Effects on food intake (FIG. 9A) and body weight (FIG. 9B) are shown.

[2] = tested on: male diet-induced obese mice; test: Acute feeding study with NMU and NMS; type: in vivo; conditions: acute peripheral administration (i.p. or s.c.), FIG. 1A
Experimental: as §6

[3] = maximum response at 1 μM compared to the human NMU-25 response at the same concentration
[4] = acute subcutaneous administration
[5] = acute subcutaneous administration, FIG. 6B

T4 sequence (Q8BZ39 whole entry): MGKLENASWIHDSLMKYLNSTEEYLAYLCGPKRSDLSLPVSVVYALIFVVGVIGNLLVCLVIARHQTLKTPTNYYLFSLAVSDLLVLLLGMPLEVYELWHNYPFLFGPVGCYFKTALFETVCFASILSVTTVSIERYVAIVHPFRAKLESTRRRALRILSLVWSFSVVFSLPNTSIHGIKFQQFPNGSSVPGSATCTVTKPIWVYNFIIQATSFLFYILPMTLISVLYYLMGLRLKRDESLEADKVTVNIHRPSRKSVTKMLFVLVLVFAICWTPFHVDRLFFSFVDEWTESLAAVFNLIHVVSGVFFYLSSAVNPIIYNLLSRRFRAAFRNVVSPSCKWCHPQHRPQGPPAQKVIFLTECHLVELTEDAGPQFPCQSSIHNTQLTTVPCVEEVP
T2 sequence (A0A8I3MN59 1-378): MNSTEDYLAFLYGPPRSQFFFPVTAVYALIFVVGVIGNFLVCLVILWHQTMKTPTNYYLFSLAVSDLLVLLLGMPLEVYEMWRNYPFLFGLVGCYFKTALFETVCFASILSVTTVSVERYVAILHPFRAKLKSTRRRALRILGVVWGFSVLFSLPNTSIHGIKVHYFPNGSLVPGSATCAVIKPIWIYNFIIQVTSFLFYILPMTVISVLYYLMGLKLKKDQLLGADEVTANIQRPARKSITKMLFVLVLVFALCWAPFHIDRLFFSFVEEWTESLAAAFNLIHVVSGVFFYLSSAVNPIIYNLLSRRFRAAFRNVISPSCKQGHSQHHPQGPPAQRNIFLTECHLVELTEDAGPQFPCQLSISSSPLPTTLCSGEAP
T3 sequence (Q9GZQ4 whole entry): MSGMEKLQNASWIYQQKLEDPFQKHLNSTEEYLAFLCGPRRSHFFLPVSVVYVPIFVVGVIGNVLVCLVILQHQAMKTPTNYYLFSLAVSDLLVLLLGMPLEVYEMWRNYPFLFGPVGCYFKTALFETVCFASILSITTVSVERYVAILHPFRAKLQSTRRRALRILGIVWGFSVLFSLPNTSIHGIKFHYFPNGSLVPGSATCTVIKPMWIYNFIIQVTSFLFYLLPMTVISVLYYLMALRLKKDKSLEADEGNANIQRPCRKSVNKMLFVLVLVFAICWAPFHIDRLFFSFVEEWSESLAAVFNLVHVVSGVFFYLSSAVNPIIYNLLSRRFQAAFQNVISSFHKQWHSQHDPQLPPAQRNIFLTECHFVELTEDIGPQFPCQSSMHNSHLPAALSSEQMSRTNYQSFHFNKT

Row | EC50 (mouse NMUR1-ATG) | EC50 (dog NMUR1-ATG) | EC50 (dog NMUR2) | EC50 (human NMUR2) | EC50 (mouse NMUR2) | EC50 (human NMUR1) | Compound | overnight food intake (mice; [4]) | body weight (mice; [5]) | duration of significant reduction of food intake (mice; [4]) | other results
1 | 8.7 nM | 11.6 nM | 2.2 nM | 18.1 nM | 11.9 nM | 11.4 nM | CC[C@H](C)[C@H](NC(=O)[C@H](CSC1CC(=O)N(CC)C1=O)NC(C)=O)C(=O)N[C@@H](CC(C)C)C(=O)N[C@@H](CCC(N)=O)C(=O)N[C@@H](CCCNC(=N)N)C(=O)NCC(=O)N[C@@H](CO)C(=O)NCC(=O)N[C@H](C(=O)N[C@@H](C)C(=O)N[C@@H](C)C(=O)N[C@H](C(=O)N[C@@H](CC(=O)O)C(=O)N[C@@H](Cc1ccccc1)C(=O)N[C@H](C(=O)N[C@@H](CCCCN)C(=O)N[C@@H](CCCCN)C(=O)N[C@@H](CC(=O)O)C(=O)N[C@@H](Cc1c[nH]cn1)C(=O)N[C@H](C(=O)N[C@@H](C)C(=O)N[C@H](C(=O)N[C@@H](Cc1c[nH]c2ccccc12)C(=O)NCC(=O)N[C@@H](CCCNC(=N)N)C(=O)N1CCC[C@H]1C(=O)N[C@@H](Cc1ccccc1)C(=O)N[C@@H](Cc1ccccc1)C(=O)N[C@@H](CC(C)C)C(=O)N[C@@H](Cc1ccccc1)C(=O)N[C@@H](CCCNC(=N)N)C(=O)N1CCC[C@H]1C(=O)N[C@@H](CCCNC(=N)N)C(=O)N[C@@H](CC(N)=O)C(N)=O)[C@@H](C)O)[C@@H](C)O)[C@@H](C)O)C(C)C)[C@@H](C)O (stereo partly shown) [NMS3] (Ac-C(Succinimide(1-Et,3-yl))ILQRGSGTAAVDFTKKDHTATWGRPFFLFRPRN-NH2) | – | – | – | % Activity (mouse NMUR1-ATG; [3]): 98%; % Activity (dog NMUR1-ATG; [3]): 101%; % Activity (dog NMUR2; dog NMUR2, maximum response at 1 μM compared to the human NMU-25 response at the same concentration): 107%; % Activity (human NMUR2; human NMUR2, maximum response at 1 μM compared to the human NMU-25 response at the same concentration): 105%; % Activity (mouse NMUR2; mouse NMUR2, maximum response at 1 μM compared to the human NMU-25 response at the same concentration): 108%; % Activity (human NMUR1; human NMUR1, maximum response at 1 μM compared to the human NMU-25 response at the same concentration): 97%
2 | 589 nM | 18.5 nM | 22.5 nM | 397 nM | 29.1 nM | 141 nM | Ac-C2ILQRGSGTAAVDFTKKDHTATWGRPFFLFRPRN-CONH2 (Ac-C([maleimide-(PEG)2 40 kDa])ILQRGSGTAAVDFTKKDHTATWGRPFFLFRPRN-NH2) [NMS1, C2 = Cys(PEG)240 kDa, cysteine PEGylated via the side-chain thiol with a branched PEG] | significantly reduced | Significant reductions | three days post-dose | body weight (mice; NMS1 compared to NMU9, FIG. 7B): Significant reductions; food intake (mice; dose response, NMS1 versus NMU9, FIG. 7A): reduced food intake for at least three days post-dose in a dose-dependent manner; effects on food intake and body weight ([1]; Nmur2 knockout animals, FIGS. 9A and 9B): only overnight effects; food intake ([1]; acute administration, Nmur1/Nmur2 double knockout animals, FIG. 8A): no effect; body weight ([1]; acute administration, Nmur1/Nmur2 double knockout animals, FIG. 8B): no effect; anorectic efficacy ([1]; acute administration, wild-type animals): highly efficacious
3 | 66.2 nM | 13.1 nM | 3.1 nM | 103 nM | 19.4 nM | 73.9 nM | Ac-C4ILQRGSGTAAVDFTKKDHTATWGRPFFLFRPRN-CONH2 (Ac-C([maleimide-PEG 40 kDa])ILQRGSGTAAVDFTKKDHTATWGRPFFLFRPRN-NH2) [NMS4, C4 = Cys(PEG)40 kDa, cysteine PEGylated via the side-chain thiol with a linear PEG] | significantly reduced | Significant reductions | two days post-dose | –
4 | – | – | – | – | – | – | NMU: Neuromedin U; full length 25-mer (NMU-25) in humans (FRVDEEFQSPFASQSRGYFLFRPRN; ends and bridges not checked; UniProt P48645 142-166, looked up) | – | – | – | food intake [2]: dose-dependently reduced
